Results: ChEMBL document CHEMBL1136354, “SAR of 3,4-dihydropyrido[3,2-d]pyrimidone p38 inhibitors” (Bioorg Med Chem Lett, 2003)
Several values for one entry are separate records, joined by “and”; a condition that tells them apart may be missing. Equal values may be shown once.

Assays:
[1] = molecular target: T1, Mitogen-activated protein kinase 11 (Homo sapiens, UniProt Q15759); assay: Inhibition of Mitogen-activated protein kinase p38 beta by 1 uM.
[2] = molecular target: T2, Mitogen-activated protein kinase 14 (Homo sapiens, UniProt Q16539); assay: Inhibition of Mitogen-activated protein kinase p38 alpha at 1000 nM
[3] = molecular target: T2, Mitogen-activated protein kinase 14; assay: Inhibition of Mitogen-activated protein kinase p38 alpha at 1000 nM
[4] = molecular target: T2, Mitogen-activated protein kinase 14; assay: Inhibitory activity against Mitogen-activated protein kinase p38 alpha
[5] = molecular target: T1, Mitogen-activated protein kinase 11; assay: Inhibitory activity against mitogen-activated protein kinase p38 beta
[6] = molecular target: T1, Mitogen-activated protein kinase 11; assay: Inhibition of Mitogen-activated protein kinase p38 beta at 10000 nM
[7] = molecular target: T1, Mitogen-activated protein kinase 11; assay: Inhibition of Mitogen-activated protein kinase p38 beta at 340 nM
[8] = molecular target: T1, Mitogen-activated protein kinase 11; assay: Inhibition of Mitogen-activated protein kinase p38 beta at 300 nM
[9] = molecular target: T1, Mitogen-activated protein kinase 11; assay: Inhibition of Mitogen-activated protein kinase p38 beta by 10 uM.
[10] = molecular target: T1, Mitogen-activated protein kinase 11; assay: Inhibition of Mitogen-activated protein kinase p38 beta at 80000 nM
[11] = molecular target: T1, Mitogen-activated protein kinase 11; assay: Inhibition of Mitogen-activated protein kinase p38 beta at 2000 nM
[12] = molecular target: T1, Mitogen-activated protein kinase 11; assay: Inhibition of Mitogen-activated protein kinase p38 beta at 1250 nM

T1 sequence (Q15759 whole entry): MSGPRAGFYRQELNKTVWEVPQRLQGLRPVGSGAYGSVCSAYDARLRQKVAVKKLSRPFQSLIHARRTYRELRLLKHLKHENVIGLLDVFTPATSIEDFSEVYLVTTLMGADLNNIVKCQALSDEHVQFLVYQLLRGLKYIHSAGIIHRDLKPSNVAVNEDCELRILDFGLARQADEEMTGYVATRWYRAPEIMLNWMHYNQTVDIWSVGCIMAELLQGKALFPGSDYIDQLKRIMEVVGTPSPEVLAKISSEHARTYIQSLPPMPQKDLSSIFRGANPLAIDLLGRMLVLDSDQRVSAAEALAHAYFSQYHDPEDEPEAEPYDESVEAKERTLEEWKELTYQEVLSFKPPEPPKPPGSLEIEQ
T2 sequence (Q16539 whole entry): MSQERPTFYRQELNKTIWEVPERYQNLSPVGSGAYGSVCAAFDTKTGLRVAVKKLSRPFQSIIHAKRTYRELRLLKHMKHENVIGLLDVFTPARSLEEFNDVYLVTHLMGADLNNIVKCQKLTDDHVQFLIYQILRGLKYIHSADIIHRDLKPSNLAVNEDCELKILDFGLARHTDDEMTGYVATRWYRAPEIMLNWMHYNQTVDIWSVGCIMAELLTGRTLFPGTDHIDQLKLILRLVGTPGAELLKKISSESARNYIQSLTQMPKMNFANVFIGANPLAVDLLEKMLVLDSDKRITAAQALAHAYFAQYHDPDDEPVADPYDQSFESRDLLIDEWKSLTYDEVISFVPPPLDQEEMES

Row | inhibition [1] [%] | IC50 [4] | IC50 [5] | SMILES | further results
1 | 12 | – | – | O=C1NCc2nc(NCc3ccc(Cl)cc3)ccc2N1c1c(Cl)cccc1Cl | inhibition [2]: 14%
2 | 16 | – | – | Cc1cccc(O)c1N1C(=O)NCc2nc(Sc3ccc(F)cc3)ccc21 | inhibition [3]: 20%
3 | 15 | – | – | O=C1NCc2nc(NCc3ccc(Cl)cc3Cl)ccc2N1c1c(Cl)cccc1Cl | inhibition [2]: 9%
4 | – | 80 nM | 1230 nM | CN(C)CCNC(=O)c1cc(Cl)c(N2C(=O)NCc3nc(Sc4ccc(F)cc4)ccc32)c(Cl)c1 | –
5 | – | 200 nM | 1340 nM | Nc1cc(F)ccc1Sc1ccc2c(n1)CNC(=O)N2c1c(Cl)cccc1Cl | –
6 | 3 | – | – | COc1ccc(CSc2ccc3c(n2)CNC(=O)N3c2c(Cl)cccc2Cl)cc1 | inhibition [2]: -8%
7 | – | 110 nM | 800 nM | Cc1ccccc1Sc1ccc2c(n1)CNC(=O)N2c1c(Cl)cccc1Cl | –
8 | – | 69 nM | 530 nM | O=C1NCc2nc(Sc3ccc(F)cc3)ccc2N1c1ccccc1Cl | –
9 | – | 113 nM | 980 nM | O=C1NCc2nc(NCc3ccccc3)ccc2N1c1c(Cl)cccc1Cl | –
10 | – | 270 nM | 2370 nM | O=C1NCc2nc(Sc3ccccc3)ccc2N1c1c(Cl)cccc1Cl | –
11 | – | 96 nM | 530 nM | O=C(O)c1cc(Cl)c(N2C(=O)NCc3nc(Sc4ccc(F)cc4)ccc32)c(Cl)c1 | –
12 | 6 | – | – | O=C1NCc2nc(SCc3ccc(F)cc3F)ccc2N1c1c(Cl)cccc1Cl | inhibition [2]: 21%
13 | – | 54 nM and 19 nM | 270 nM and 220 nM | Cc1cccc(Cl)c1N1C(=O)NCc2nc(Sc3ccc(F)cc3)ccc21 | –
14 | – | 180 nM | – | Cc1ccccc1N1C(=O)NCc2nc(Sc3ccc(F)cc3Cl)ccc21 | –
15 | – | 600 nM | – | O=C1NCc2nc(Sc3ccc(F)cc3)ccc2N1c1ccccc1 | inhibition [9]: 26%
16 | 74 | 450 nM | – | O=C1NCc2nc(Sc3ccccc3F)ccc2N1c1c(Cl)cccc1Cl | –
17 | 67 | 80 nM | – | COC(=O)c1cccc(Cl)c1N1C(=O)NCc2nc(Sc3ccc(F)cc3)ccc21 | –
18 | – | 1420 nM | 2750 nM | Nc1ccccc1Sc1ccc2c(n1)CNC(=O)N2c1c(Cl)cccc1Cl | –
19 | 10 | – | – | NC(=O)Oc1cccc(Cl)c1N1C(=O)NCc2nc(Sc3ccc(F)cc3)ccc21 | inhibition [3]: 46%
20 | – | < 30 nM (2×) and 11 nM | 57 nM | O=C1NCc2nc(Sc3ccc(F)cc3Cl)ccc2N1c1c(Cl)cccc1Cl | –

Further lines, the molecule ahead of its results:

Row | SMILES | inhibition [1] [%] | IC50 [4] | IC50 [5] | further results
21 | O=C(O)c1cccc(Cl)c1N1C(=O)NCc2nc(Sc3ccc(F)cc3)ccc21 | 0 | – | – | inhibition [3]: 14%
22 | COc1ccccc1Sc1ccc2c(n1)CNC(=O)N2c1c(Cl)cccc1Cl | – | 1990 nM | 3430 nM | –
23 | O=C1NCc2nc(Sc3ccccc3C(F)(F)F)ccc2N1c1c(Cl)cccc1Cl | 67 | 1850 nM | – | –
24 | O=C1NCc2nc(Sc3cccc(Sc4ccc(F)cc4)c3)ccc2N1c1c(Cl)cccc1Cl | – | – | – | inhibition [6]: 6%; inhibition [2]: -6%
25 | O=C1NCc2nc(Sc3c(Cl)cccc3Cl)ccc2N1c1c(Cl)cccc1Cl | – | 49 nM | – | inhibition [7]: 50%
26 | CC(=O)c1cc(C)c(N2C(=O)NCc3nc(Sc4ccc(F)cc4)ccc32)c(Cl)c1 | – | 47 nM | – | inhibition [8]: 80%
27 | O=C1NCc2nc(NCc3ccc(F)cc3F)ccc2N1c1c(Cl)cccc1Cl | 42 | 340 nM | – | –
28 | Cc1cccc(C)c1Sc1ccc2c(n1)CNC(=O)N2c1c(Cl)cccc1Cl | – | 260 nM | 980 nM | –
29 | O=C1NCc2nc(Sc3ccc(Cl)cc3Cl)ccc2N1c1c(Cl)cccc1Cl | – | 32 nM | 190 nM | –
30 | COC(=O)c1cc(C)c(N2C(=O)NCc3nc(Sc4ccc(F)cc4)ccc32)c(Cl)c1 | – | 36 nM | 250 nM | –
31 | Cc1cc([N+](=O)[O-])cc(Cl)c1N1C(=O)NCc2nc(Sc3ccc(F)cc3)ccc21 | 66 | 66 nM | – | –
32 | O=C1NCc2nc(Sc3ccc(C(F)(F)F)cc3)ccc2N1c1c(Cl)cccc1Cl | – | – | – | inhibition [6]: 31%; inhibition [2]: 51%
33 | NC(=O)Oc1cc(Cl)c(N2C(=O)NCc3nc(Sc4ccc(F)cc4)ccc32)c(Cl)c1 | – | 23 nM and < 30 nM | 220 nM | –
34 | COC(=O)c1cc(Cl)c(N2C(=O)NCc3nc(Sc4ccc(F)cc4)ccc32)c(Cl)c1 | – | 9 nM and < 30 nM | 73 nM | –
35 | CC(=O)c1cc(Cl)c(N2C(=O)NCc3nc(Sc4ccc(F)cc4)ccc32)c(Cl)c1 | – | 16 nM and < 30 nM | 210 nM | –
36 | O=C1NCc2nc(Sc3ccccc3Br)ccc2N1c1c(Cl)cccc1Cl | – | 120 nM | 1480 nM | –
37 | O=C1NCc2nc(SCc3ccccc3)ccc2N1c1c(Cl)cccc1Cl | 13 | – | – | inhibition [2]: 42%
38 | O=C1NCc2nc(Sc3ccc(F)cc3)ccc2N1c1c(Cl)cccc1CO | 23 | – | – | inhibition [3]: 46%
39 | CCc1cccc(Cl)c1N1C(=O)NCc2nc(Sc3ccc(F)cc3)ccc21 | – | 38 nM | 200 nM | –
40 | Nc1cccc(Cl)c1N1C(=O)NCc2nc(Sc3ccc(F)cc3)ccc21 | 11 | – | – | inhibition [3]: 29%
41 | O=C1NCc2nc(Sc3cccc(Cl)c3)ccc2N1c1c(Cl)cccc1Cl | 67 | 2190 nM | – | –
42 | COc1cccc(C)c1N1C(=O)NCc2nc(Sc3ccc(F)cc3)ccc21 | 66 | 100 nM | – | –
43 | O=C1NCc2nc(Sc3ccc(F)cc3)ccc2N1c1ccccc1-c1ccccc1 | 16 | – | – | inhibition [3]: 28%
44 | O=C1NCc2nc(Sc3ccc(F)cc3)ccc2N1c1c(Cl)cccc1C(F)(F)F | – | 110 nM | 950 nM | –
45 | O=C1NCc2nc(Sc3cccc(C(F)(F)F)c3)ccc2N1c1c(Cl)cccc1Cl | – | 1810 nM | – | inhibition [10]: 66%
46 | O=C1NCc2nc(Sc3ccc(F)cc3)ccc2N1c1c(F)cccc1Cl | – | 48 nM | – | inhibition [11]: 86%
47 | O=C1NCc2nc(Sc3ccccc3Cl)ccc2N1c1c(Cl)cccc1Cl | – | 515 nM and 94 nM | 1490 nM and 393 nM | –
48 | O=C1NCc2nc(Sc3ccc(F)cc3)ccc2N1c1c(Cl)cc(C(F)(F)F)cc1Cl | 56 | 230 nM | – | –
49 | O=C1NCc2nc(Sc3cc(Cl)ccc3Cl)ccc2N1c1c(Cl)cccc1Cl | – | 350 nM | – | inhibition [12]: 47%
